# PMC8205030, “Methoxy and bromo scans on N-(5-methoxyphenyl) methoxybenzenesulphonamides reveal potent cytotoxic compounds, especially against the human breast adenocarcinoma MCF7 cell line” (Journal of Enzyme Inhibition and Medicinal Chemistry, 2021)
# Like-named read-outs stand apart in the source and are kept apart here.
# Tests used:
# [1] = system: HeLa (human cervical carcinoma) cells; test: Cell growth assay (XTT), HeLa; format: cell-based; settings: 72 h drug exposure, read-out: Antiproliferative activity IC50 HeLa
# Description: (§1) The presence of mycoplasma was routinely checked with MycoAlert kit (Lonza-Cambrex) and only mycoplasma-free cells were used in the experiments. Tumour cell lines were kindly provided by Dr Faustino Mollinedo from Centro de Investigaciones Biológicas Margarita Salas, Madrid, Spain. To determine cell growth, cells in exponential growth phase were seeded (100 µL/well in 96-well plates) with appropriate cell concentration (1.5 × 10^4 cells/mL for MCF7, HeLa and HEK-293 and 3 × 10^4 cells/mL for HT-29) in complete DMEM or RPMI 1640 medium (see above) at 37 °C and 5% CO2 atmosphere. After 24 h incubation, to allow cells to attach to the plates, all compounds were added at 1 µM concentration (10 µL/well in 96-well plates) and the effect on the proliferation was evaluated 72 h post-treatment. Compounds showing antiproliferative effects at tested concentration were selected for IC50 calculation (50% inhibitory concentration compared to the untreated controls) from 10^−5 to 10^−10 M concentration. Nonlinear curves fitting the experimental data were carried out for each compound. […] A freshly prepared mixture solution of XTT labelling reagent with 0.02% (v/v) PMS (N-methyl-dibenzopyrazine methyl sulfate) electron coupling reagent was added to cells (50 µL/well in 96-well plates, the total volume of 160 µL/well) and were incubated during the corresponding time according to each cell line (4 h for MCF7 and HeLa and 6 h for HT-29 and HEK-293) in a humidified atmosphere (37 °C, 5% CO2). The absorbance of the formazan product generated was measured at a test wavelength of 450 nm using a multi-well plate reader (Ultra Evolution, Tecan, Männedorf, Suiza). Compounds were dissolved in DMSO and the final solvent concentrations never exceeded 0.5% (v/v). The control wells included treated cells with 0.5% (v/v) DMSO and the positive control. 10 µM verapamil was included as a control for the HT-29 cell line. Measurements were performed in triplicate, and each experiment was repeated three times.
# [2] = system: MCF7 (human breast carcinoma) cells; test: Cell growth assay (XTT), MCF7; format: cell-based; settings: for IC50: Homo sapiens, MCF7, 72 h drug exposure, XTT, read-out: Antiproliferative activity IC50 MCF7
# Description: as §1
# [3] = system: HT-29 (human colon carcinoma) cells; test: Cell growth assay (XTT), HT-29, alone or with verapamil; format: cell-based
# Description: as §1, with “Compounds showing antiproliferative effects at tested concentration were selected for IC50 calculation (50% inhibitory concentration compared to the untreated controls) from 10^−5 to 10^−10 M concentration.” left out
# [4] = target: T1, microtubular protein isolated from calf brain (Bos taurus, UniProt P81947+Q6B856); test: Inhibition of tubulin polymerisation (turbidity); format: biochemical; settings: for TPI % 10 µM: 10 µM compound, 1.5 mg/mL microtubular protein; for IC50: in vitro tubulin polymerisation inhibition, read-out: TPI IC50
# T1 construct: isolated from calf brain according to the modified Shelanski method; from tissue; host or cells: calf brain
# T1 sequence (Q6B856 whole entry): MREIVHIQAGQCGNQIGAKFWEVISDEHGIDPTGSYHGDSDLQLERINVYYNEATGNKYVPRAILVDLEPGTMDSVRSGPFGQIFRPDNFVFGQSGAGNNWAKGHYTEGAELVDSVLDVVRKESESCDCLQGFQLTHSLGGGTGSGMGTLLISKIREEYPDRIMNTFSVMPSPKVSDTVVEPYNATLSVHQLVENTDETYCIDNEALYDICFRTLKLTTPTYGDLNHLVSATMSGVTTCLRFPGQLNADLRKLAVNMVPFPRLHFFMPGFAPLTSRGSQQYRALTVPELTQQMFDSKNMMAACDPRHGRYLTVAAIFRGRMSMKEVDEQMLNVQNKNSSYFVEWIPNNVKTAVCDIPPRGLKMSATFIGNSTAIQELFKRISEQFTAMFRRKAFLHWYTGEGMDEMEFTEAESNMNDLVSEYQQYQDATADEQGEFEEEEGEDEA
# T1 sequence (P81947 whole entry): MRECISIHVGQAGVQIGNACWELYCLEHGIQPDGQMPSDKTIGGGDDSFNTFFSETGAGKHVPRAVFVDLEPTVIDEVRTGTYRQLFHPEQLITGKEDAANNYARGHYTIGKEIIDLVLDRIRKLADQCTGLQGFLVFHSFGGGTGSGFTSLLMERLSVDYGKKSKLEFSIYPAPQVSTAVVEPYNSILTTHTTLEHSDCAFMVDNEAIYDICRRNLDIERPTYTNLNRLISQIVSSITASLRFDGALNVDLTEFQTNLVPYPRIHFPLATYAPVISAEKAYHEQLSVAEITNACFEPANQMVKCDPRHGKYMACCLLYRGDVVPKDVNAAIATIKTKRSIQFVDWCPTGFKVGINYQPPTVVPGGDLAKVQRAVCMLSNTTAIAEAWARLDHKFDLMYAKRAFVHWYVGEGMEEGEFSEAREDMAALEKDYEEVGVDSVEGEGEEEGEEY
# Description: Microtubular protein was isolated from calf brain according to the modified Shelanski method[23]^,[24] by two cycles of temperature-dependent assembly/disassembly and stored at −80 °C. Before each use, protein concentration is determined by Bradford method[25] taking BSA as standard. Tubulin polymerisation was monitored using a Helios α spectrophotometer by measuring the increase in turbidity at 450 nm, caused by a shift from 4 °C to 37 °C, which allows the in vitro microtubular protein to depolymerise and to polymerise, respectively. The assay was carried out in quartz cuvettes containing 1.5 mg/mL microtubular protein and the ligand (except for control cuvette with only DMSO at the same concentration) in a mixture of 0.1 M MES buffer, 1 mM EGTA, 1 mM MgCl2, 1 mM β-ME, and 1.5 mM GTP at pH 6.7 (final volume 500 µL). Cuvettes were preincubated at 20 °C for 30 min, to allow ligand binding to tubulin, and subsequently cooled on ice for 10 min. Then, the experiment starts at 4 °C to establish the initial baseline. The assembly process was initiated by a temperature shift to 37 °C and the turbidity produced by tubulin polymerisation can be measured by an absorbance increase. After reaching a stable plateau, the temperature was switched back to 4 °C to return to the initial absorption values (to confirm the reversible nature of the monitored process and to determine whether or not the microtubular protein has stabilized). The difference in amplitude between the stable plateau and the initial baseline of the curves was taken as the degree of tubulin polymerisation for each experiment. […] All compounds were tested at 10 µM concentration. IC50 values were calculated for compounds that inhibit tubulin polymerisation more than 50% at 10 µM. […] All the measurements were carried out in at least two independent experiments using microtubular protein from different preparations.
# [5] = Homo sapiens, HT-29, 72 h drug exposure, XTT, read-out: Antiproliferative activity IC50 HT-29
# [6] = 72 h, in the presence of Pgp/MDR1 inhibitor verapamil (10 µM), read-out: Antiproliferative activity IC50 HT-29 Verap
SMILES,IC50 [1],IC50 [2],"IC50 [3, 5]",TPI % 10 µM [4],IC50 [4],"IC50 [3, 6]",melting point,Fold more potent against MCF7 than against HeLa ([2]; ratio of IC50 values),Difference in HT-29 IC50 values from co-treatment with MDR inhibitor ([3]; without vs with verapamil 10 µM)
"CCOC(=O)CN(c1cc(OC)cc(OC)c1)S(=O)(=O)c1ccc(OC)cc1 [Compound 5, Ethyl N-(3,5-dimethoxyphenyl)-N-((4-methoxyphenyl)sulphonyl)glycinate]",> 1000 nM,> 1000 nM,> 1000 nM,0%,> 10000 nM,,,,
"CCOC(=O)CN(c1cc(OC)c(Br)cc1OC)S(=O)(=O)c1ccc(OC)cc1 [Compound 26, Ethyl N-(4-bromo-2,5-dimethoxyphenyl)-N-((4-methoxyphenyl)sulphonyl)glycinate]",577 nM,700 nM,2100 nM,28%,> 10000 nM,867 nM,,,
"COc1ccc(S(=O)(=O)N(Cc2ccccc2)c2cc(OC)c(Br)c(OC)c2)cc1 [Compound 10a, N-benzyl-N-(4-bromo-3,5-dimethoxyphenyl)-4-methoxybenzenesulphonamide]",310 nM,335 nM,450 nM,0%,> 10000 nM,533 nM,,,
"COc1ccc(S(=O)(=O)N(CC2CO2)c2cc(OC)c(Br)cc2OC)cc1 (stereo not drawn) [Compound 28, N-(4-bromo-2,5-dimethoxyphenyl)-4-methoxy-N-(oxiran-2-ylmethyl)benzenesulphonamide]",495 nM,,860 nM,32%,> 10000 nM,,,,
"COc1ccc(S(=O)(=O)N(Cc2ccccc2)c2cc(OC)cc(OC)c2Br)cc1 [Compound 10b, N-benzyl-N-(2-bromo-3,5-dimethoxyphenyl)-4-methoxybenzenesulphonamide]",> 1000 nM,> 1000 nM,> 1000 nM,0%,> 10000 nM,,,,
"COc1ccc(S(=O)(=O)N(Cc2ccccc2)c2cc(OC)c(OC)cc2OC)cc1 [Compound 37, N-benzyl-4-methoxy-N-(2,4,5-trimethoxyphenyl)benzenesulphonamide]",833 nM,,1250 nM,7%,> 10000 nM,,130 to 139 °C,,
"COc1ccc(S(=O)(=O)Nc2cc(OC)c(OC)c(OC)c2)cc1 [TMP[41], N-(3,4,5-trimethoxyphenyl)-4-methoxyphenylsulphonamide, reference compound]",240 nM,,,,,975 nM,,,
"COc1ccc(S(=O)(=O)N(C)c2cc(OC)c(Br)c(OC)c2)cc1 [Compound 8a, N-(4-bromo-3,5-dimethoxyphenyl)-4-methoxy-N-methylbenzenesulphonamide]",497 nM,99 nM,495 nM,10%,> 10000 nM,293 nM,,4–7 fold,
"CCN(c1cc(OC)c(Br)c(OC)c1)S(=O)(=O)c1ccc(OC)cc1 [Compound 9a, N-(4-bromo-3,5-dimethoxyphenyl)-N-ethyl-4-methoxybenzenesulphonamide]",417 nM,,610 nM,0%,> 10000 nM,,,,
"COc1ccc(S(=O)(=O)Nc2cccnc2Nc2ccc(O)cc2)cc1 [ABT-751, reference compound]",388 nM,180 nM,,69%,4400 nM,,,,
"CCOC(=O)N(c1cc(OC)c(Br)cc1OC)S(=O)(=O)c1ccc(OC)cc1 [Compound 27, Ethyl (4-bromo-2,5-dimethoxyphenyl)((4-methoxyphenyl)sulphonyl)carbamate]",377 nM,220 nM,525 nM,44%,> 10000 nM,170 nM,,,higher than 3 fold
"COc1ccc(S(=O)(=O)N(Cc2ccccc2)c2cc(OC)c(Br)c(OC)c2Br)cc1 [Compound 10c, N-benzyl-N-(2,4-dibromo-3,5-dimethoxyphenyl)-4-methoxybenzenesulphonamide]",> 1000 nM,> 1000 nM,> 1000 nM,0%,> 10000 nM,,,,
